These results are taken from patent EP0679394B1, “Menatetronome derivative as antiarteriosclerotic agent” (Eisai Co., Ltd., priority 1994, dated 1995).

In series [1] the test system is arteriosclerotic rats. Description: Effect of vitamin K2 on arteriosclerotic rats (vitamin D2-induced calcification). It is filed as in vivo. As for the experimental part:
Then vitamin D2, vitamin D2 with vitamin K2 (in a low dose), and vitamin D2 with vitamin K2 (in a high dose) were given respectively to the groups A, B and C.
After feeding for five weeks, the urine of each group was sampled for a period of 20 hours and the urinary calcium, phosphorus and creatinine levels were measured.
After feeding for six weeks, the animals of each group were bled to death and the blood, aorta (from the aortic arch to the thoracic aorta) and kidneys were sampled.
The serum was separated from the blood and the serum calcium and phosphorus levels were measured.
The aorta and kidneys were defatted, dehydrated and incinerated and the calcium and phosphorus contents therein were determined.
The calcium concentrations were determined by atomic absorption spectrophotometry. The inorganic phosphorus concentrations were determined by Goldenberg's method. The creatinine concentrations were determined by the enzymatic method.
(The data of each group were compared with those of the control group according to the t-test method.)

A short description of series [2]: Acute (single administration) toxicity test in rats. The series is classed as in vivo, SD rats. The note with it: in vivo, Rat M, medium 5% gum arabic. As for the experimental part:
(§1) Next, the results of the acute toxicity test of 2-methyl-3-[(2E,6E,10E)-3,7,11,15-tetramethyl-2,6,10,14-hexadecatetraenyl]naphthoquinone (generic name: vitamin K2), which is a typical example of the compound of the present invention, will be given. An acute toxicity test was conducted as follows:
(§2) A single administration toxicity test was effected by orally, subcutaneously and intraperitoneally administering the test compound (medium: 5% gum arabic) to SD rats, ICR mice and beagles aged 7 to 8 weeks (5 females and 5 males in each case).

Series [3] has as its system SD rats. Described as above. The series is classed as in vivo. Conditions: Rat F, medium 5% gum arabic. As for the experimental part:
as §1, §2

Series [4] in a line: Acute (single administration) toxicity test in mice. Conditions: in vivo, Mouse M, medium 5% gum arabic. The series is classed as in vivo, ICR mice. As for the experimental part:
as §1, §2

Series [5] deals with ICR mice. The description is as above. The series is classed as in vivo. The note with it: Mouse F, medium 5% gum arabic. As for the experimental part:
as §1, §2

Series [6] in a line: Acute (single administration) toxicity test in beagles. The series is classed as in vivo. The note with it: dog, in vivo, Beagle M, medium 5% gum arabic. As for the experimental part: as §1, §2
Series [7] relates to beagles. The description is as above. Conditions: Beagle F, medium 5% gum arabic. The series is classed as in vivo. As for the experimental part: as §1, §2
Setting [8] is: Group A: vitamin D2 2.5 × 10^5 IU/kg/day p.o. alone, 6 weeks, n=8.

Structures are written as SMILES. Where only a bound is given, the exact number is not on record here.

For `C=C1CC[C@H](O)C/C1=C/C=C1\CCC[C@]2(C)[C@@H]([C@H](C)/C=C/[C@H](C)C(C)C)CC[C@@H]12` [vitamin D2], in series [1] (setting [8]), the “Aorta Ca” value amounted to 11.6 ± 11.1 mg/dL, the “Aorta P” value was 10.9 ± 7.1 mg/dL, the “Kidney Ca” value is 7.6 ± 7.8 mg/dL and the “Kidney P” value is 7.2 ± 2.0 mg/dL. The “calcium and phosphorus contents in the aorta” value in series [1] (group A, vitamin D2 2.5 × 10^5 IU/kg/day p.o. alone, 6 weeks) is recorded as “significant increases”.

Regarding `CC(C)=CCC/C(C)=C/CC/C(C)=C/CC/C(C)=C/CC1=C(C)C(=O)c2ccccc2C1=O` [vitamin K2, 2-Methyl-3-[(2E,6E,10E)-3,7,11,15-tetramethyl-2,6,10,14-hexadecatetraenyl]naphthoquinone], the LD50 in series [2] (ip, intraperitoneal) is over 5000 mg/kg; in series [2] (oral), over 5000 mg/kg; in series [2] (sc, subcutaneous), over 5000 mg/kg; in series [3] (intraperitoneal), over 5000 mg/kg; in series [3] (oral), over 5000 mg/kg; in series [3] (subcutaneous), over 5000 mg/kg. In addition, the LD50 is over 5000 mg/kg in series [4] (ip, intraperitoneal); over 5000 mg/kg in series [4] (oral); over 5000 mg/kg in series [4] (sc, subcutaneous); over 5000 mg/kg in series [5] (intraperitoneal); over 5000 mg/kg in series [5] (oral); over 5000 mg/kg in series [5] (subcutaneous). Also, the LD50 in series [6] (ip, intraperitoneal) was over 3000 mg/kg; in series [6] (oral) it was over 3000 mg/kg; in series [6] (sc, subcutaneous), over 3000 mg/kg; in series [7] (intraperitoneal) it was over 3000 mg/kg; in series [7] (oral), over 3000 mg/kg; in series [7] (subcutaneous), over 3000 mg/kg. For the same molecule, the “Aorta Ca” value came to 5.0 ± 3.8 mg/dL in series [1] (po, 10 mg/kg, 1008 h) and 2.6 ± 3.2 mg/dL in series [1] (po, 100 mg/kg, 1008 h). The “Aorta P” value in series [1] (po, 10 mg/kg, 1008 h) came to 12.6 ± 12.2 mg/dL; in series [1] (po, 100 mg/kg, 1008 h) it was 3.7 ± 4.3 mg/dL. Further, the “Kidney Ca” value stood at 3.4 ± 3.8 mg/dL in series [1] (po, 10 mg/kg, 1008 h) and 1.6 ± 1.4 mg/dL in series [1] (po, 100 mg/kg, 1008 h). The “Kidney P” value in series [1] (po, 10 mg/kg, 1008 h) was found to be 6.3 ± 2.7 mg/dL; in series [1] (po, 100 mg/kg, 1008 h), 4.5 ± 1.4 mg/dL.
